Reference: publication PMC6235531, “Analyzing Protein Architectures and Protein-Ligand Complexes by Integrative Structural Mass Spectrometry” (Journal of Visualized Experiments : JoVE, 2018)
Where a name gives a salt, the structure may show the parent alone.

How the values were obtained:
[1] = biological target: T1, HerA-NurA (Saccharolobus solfataricus, UniProt Q97WG8); test: native nESI mass spectrometry titration; format: binding; settings: 5 uM protein, 0-1 mM ligand, 2 mM MgCl2, 25 °C 1 h, then 200 mM ammonium acetate pH 7; also tested with 25 bp dsDNA
T1 construct: purified HerA hexamer with NurA dimer; with DNA double-strand break repair nuclease NurA

[2] = biological target: T2, HerA (Saccharolobus solfataricus, UniProt Q97WG8); test: native nESI mass spectrometry titration; format: binding; settings: increasing ATP-γ-S; no NurA; 200 mM ammonium acetate
T2 construct: purified HerA without NurA, hexamer and heptamer
T2 sequence (Q97WG8 1-500): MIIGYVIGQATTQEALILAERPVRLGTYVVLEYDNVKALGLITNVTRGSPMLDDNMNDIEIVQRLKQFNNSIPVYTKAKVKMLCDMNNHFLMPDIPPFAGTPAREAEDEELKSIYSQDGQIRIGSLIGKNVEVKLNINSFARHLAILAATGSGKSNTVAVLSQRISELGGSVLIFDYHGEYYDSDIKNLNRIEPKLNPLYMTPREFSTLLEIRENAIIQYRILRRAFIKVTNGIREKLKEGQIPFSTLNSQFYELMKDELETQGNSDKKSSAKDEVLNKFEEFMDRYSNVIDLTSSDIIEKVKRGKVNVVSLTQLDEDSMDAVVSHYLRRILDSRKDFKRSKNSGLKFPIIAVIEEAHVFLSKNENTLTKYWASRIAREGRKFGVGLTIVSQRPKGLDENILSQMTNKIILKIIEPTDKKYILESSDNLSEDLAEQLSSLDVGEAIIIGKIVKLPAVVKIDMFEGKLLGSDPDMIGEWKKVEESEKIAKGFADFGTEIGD

T1 sequence (Q97WH1 whole entry, one chain of several, further chain): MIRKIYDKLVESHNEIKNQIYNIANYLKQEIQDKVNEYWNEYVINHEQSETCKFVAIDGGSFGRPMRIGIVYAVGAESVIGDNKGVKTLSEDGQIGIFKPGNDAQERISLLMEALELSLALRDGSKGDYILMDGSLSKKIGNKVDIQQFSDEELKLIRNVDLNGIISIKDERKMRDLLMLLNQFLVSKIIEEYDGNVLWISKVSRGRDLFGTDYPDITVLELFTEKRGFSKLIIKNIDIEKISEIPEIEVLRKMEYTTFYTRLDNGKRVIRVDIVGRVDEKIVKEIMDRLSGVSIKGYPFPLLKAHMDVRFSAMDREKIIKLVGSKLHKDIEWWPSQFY

Nc1ncnc2c1ncn2[C@@H]1O[C@H](COP(=O)(O)OP(=O)(O)OP(O)(O)=S)[C@@H](O)[C@H]1O [ATP-γ-S, adenosine 5′-O-(3-thiotriphosphate), tetralithium salt]
native nESI mass spectrometry titration [1]: ATP-γ-S and ADP titrations experiments determined the pairwise nucleotide binding to HerA-NurA alone
native nESI mass spectrometry titration [2]: Number of ATP-γ-S molecules bound is shown on the spectra

Nc1ncnc2c1ncn2[C@@H]1O[C@H](COP(=O)(O)OP(=O)(O)O)[C@@H](O)[C@H]1O [ADP]
native nESI mass spectrometry titration [1]: ATP-γ-S and ADP titrations experiments determined the pairwise nucleotide binding to HerA-NurA alone
